Assay results: patent US8507219B2, “Method of treating inflammation with statins” (MUSC Foundation for Research Development, priority 1997, dated 2013)
Where “and” joins values, the source holds several entries; their conditions need not be identical. Equal values may be shown once. Entries after “also recorded” stand apart in the source; their conditions may differ.

Columns and labels:
[1] = tested on: NO production in rat C6 glial cells; assay: LPS-/cytokine-induced NO production (nitrite) in C6 glial cells; type: cell-based; details: for Nitrite / inhibition at 20000 µM: C6 glial cells, NAC 20 mM 2 h prior; for Nitrite: 24 h; for inhibition at 20000 µM: Rattus norvegicus, Glial cell
IFN-γ = assay: Immunohistochemistry of IFN-γ in brain sections of EAE rats; type: in vivo, Lewis rats; details: daily i.p. treatment from day 1
Experimental: (§1) One group of animals induced for EAE was left untreated while another group of animals was not induced for EAE and used as the control group.
(§2) Immunohistochemistry Brains were fixed in 10% buffered formalin (Stephens Scientific, Riverdale, N.J.). The tissues were embedded in paraffin and sectioned at 4 μm. Sections were then stained for various cytokines and cell markers as described below. For single-label immunohistochemistry, sections were incubated with either anti-iNOS antibody (1:100, rabbit polyclonal, Calbiochem, LaJolla, Calif.) or anti-TNF-α antibody (1:100, rabbit polyclonal, Genzyme, Cambridge, Mass.) or anti-IFN-γ antibody (1:200, rabbit polyclonal, Biosource International, Camarillo, Calif.) essentially as described for other antibodies (Hooper et al., 1997). The tissue sections were further incubated with FITC conjugated anti-rabbit IgG (1:100, Sigma, St. Louis, Mo.), mounted with mounting media (EMS) and analyzed by immunofluorescence microscopy (Olympus) using Adobe photoshop software. For immunofluorescent double-labeling, sections were incubated first with anti-iNOS (1:100) followed by macrophage marker ED1 (1:100, mouse monoclonal, Biosource International, Camarillo, Calif.). Anti-iNOS was visualized using TRITC conjugated anti-rabbit IgG—(1:100, Sigma, St. Louis, Mo.) and ED1 using FITC conjugated anti-mouse IgG (1:100, Sigma, St. Louis, Mo.). […]

[2] = tested on: intracellular GSH in rat primary astrocytes; assay: Intracellular GSH / GSSG in rat primary astrocytes; type: cell-based; details: 10 mM NAC 1 h; TNF-α or IL-1β 50 ng/ml; diamide 0.5 mM
Experimental: Measurement of reduced glutathione (GSH) concentration in rat primary astrocytes Concentration of intracellular GSH was measured using a colorimetric assay kit for GSH from RandD, USA. Briefly, 2×10^6 cells were homogenized in 500 μl of ice-cold 5% metaphosphoric acid and centrifuged at 3000 g for 10 min. Supernatants were used to assay GSH using 4-chloro-1-methyl-7-trifluoromethyl-quinolinium methylsulfate and 30% NaOH at 400 nm.
Measurement of GSH (Reduced Glutathione) and GSSG Oxidized Glutathione Concentration of intracellular reduced GSH was measured using a calorimetric assay kit for GSH from R & D Systems. Briefly, 2×10^6 cells were homogenized in 500 μl of ice-cold 5% metaphosphoric acid and centrifuged at 3000×g for 10 min. Supernatants were used to assay GSH using 4-chloro-1-methyl-7-trifluoromethylquinolinium methylsulfate and 30% NaOH at 400 nm. Concentration of GSSG was determined according to the method of Griffith (1980) after derivatization with 2-vinylpyridine for 30 min at room temperature.

TNF-α = type: in vivo, Lewis rats; details: daily i.p. treatment from day 1
Experimental: as §1, §2

[3] = tested on: cultured skin fibroblasts of X-ALD; assay: VLCFA ratios (C26:0/C22:0, C24:0/C22:0) in X-ALD skin fibroblasts; type: cell-based, human; design: C24:0/C22:0: concentration or dose not given beside the values
[4] = tested on: IL-1β production in rat primary microglia; assay: LPS-induced IL-1β production (ELISA) in rat primary microglia; type: cell-based; details: Microglia; 10 μM lovastatin or 5 mM NaPA 8 h, then LPS 1.0 μg/ml, 24 h
Experimental: (§3) Determination of TNF-α and IL-1β in culture supernatants Cells were stimulated with LPS in serum-free media for 24 h in the presence or absence of forskolin or rolipram, and concentrations of TNF-α and IL-1β were measured in culture supernatants by using high-sensitivity enzyme-linked immunosorbent assay (R&D Systems, USA) according to the manufacturer's instructions.

[5] = tested on: cultured skin fibroblasts of X-ALD; assay: β-oxidation of lignoceric acid in cultured skin fibroblasts of X-ALD; type: cell-based, human; details: for Lignoceric acid β-oxidation: 15 days, 5 μM lovastatin
[6] = tested on: TNF-α production in rat primary microglia; assay: LPS-induced TNF-α production (ELISA) in rat primary microglia; type: cell-based; details: Microglia; 10 μM lovastatin or 5 mM NaPA 8 h, then LPS 1.0 μg/ml, 24 h
Experimental: as §3

[7] = tested on: IL-1β production in rat macrophages; assay: LPS-induced IL-1β production (ELISA) in rat macrophages; type: cell-based; details: Macrophages; 10 μM lovastatin or 5 mM NaPA 8 h, then LPS 1.0 μg/ml, 24 h
[8] = Plasma very-long-chain fatty acids (C26:0) in X-ALD patients on lovastatin; type: in vivo, human
[9] = tested on: TNF-α production in rat resident macrophages; assay: LPS-/IFN-γ-induced TNF-α production (ELISA) in rat macrophages; type: cell-based; details: Macrophages; 10 μM lovastatin or 5 mM NaPA 8 h, then LPS 1.0 μg/ml, 24 h
[10] = tested on: NO production in rat primary microglia; assay: LPS-induced NO production (nitrite) in rat primary microglia; type: cell-based; details: Microglia; 10 μM lovastatin or 5 mM NaPA 8 h, then LPS 1.0 μg/ml, 24 h
[11] = tested on: TNF-α production in rat primary astrocytes; assay: LPS-induced TNF-α production (ELISA) in rat primary astrocytes; type: cell-based; details: Astrocytes; 10 μM lovastatin or 5 mM NaPA 8 h, then LPS 1.0 μg/ml, 24 h
Experimental: as §3

iNOS gene = iNOS gene transcription (nuclear run-on assay) in rat primary astrocytes; type: cell-based; details: 10 μM lovastatin, 5 mM NaPA or 2 μM lovastatin and 2 mM NaPA 8 h; LPS 1.0 μg/ml 4 h
Experimental: […]. In brief, the filters were prehybridized in 1 ml of hybridization buffer (50% formamide, 5×SSC, 1% SDS, 15% dextran sulfate, 1×Denhardt's solution, and 50 μg/ml heparin). After 24 h of prehybridization in the above buffer, hybridization was carried out with the labeled RNAs (1.3×10^5 cpm) at 42° C. for 60 h to 3 μg of the immobilized plasmid pGEM-T as a control, or to plasmids containing inserts of rat glyceraldehyde-3-phosphate dehydrogenase, rat actin, and human iNOS cDNAs. The filters were washed twice in 2×SSC, 0.1% SDS for 15 min at […], and twice in 0.5×SSC, 0.1% SDS for 15 min. Then the filters were treated with RNase buffer (300 mM NaCl, 10 mM TrisHCI, pH 7.4, 40 mM EDTA, 10 μg/ml RNase A, and 350 U/ml RNase T1) at 37° C. for 30 min, in the same buffer without RNases for another 30 min, and were then autoradiographed.

[12] = individual X-ALD patients, lovastatin 20 then 40 mg per day

CC(=O)N[C@@H](CS)C(=O)O [NAC, N-acetyl cysteine]
Nitrite ([1]; stimulus LPS + IFN-γ): 8.2 ± 1.4 nmol/mg/24 h
Nitrite ([1]; stimulus LPS + IL-1β): 5.8 ± 1.2 nmol/mg/24 h
Nitrite ([1]; stimulus LPS + TNF-α): 7.1 ± 1.1 nmol/mg/24 h
Nitrite ([1]; stimulus TNF-α + IFN-γ): 8.4 ± 2.1 nmol/mg/24 h
Nitrite ([1]; stimulus TNF-α + IL-1β): 4.2 ± 0.8 nmol/mg/24 h
inhibition at 20000 µM ([1]; stimulus LPS + IFN-γ): 74%
inhibition at 20000 µM ([1]; stimulus LPS + IL-1β): 75%
inhibition at 20000 µM ([1]; stimulus LPS + TNF-α): 79%
inhibition at 20000 µM ([1]; stimulus TNF-α + IFN-γ): 73%
inhibition at 20000 µM ([1]; stimulus TNF-α + IL-1β): 80%
expression of IFN-γ in EAE brain (IFN-γ): blocked the induction of IFN-γ
intracellular level of GSH / GSSG [2]: intracellular level of GSH did not decrease when cells were stimulated with cytokines in presence of NAC; also recorded: lack of decrease of GSH
expression of TNF-α in EAE brain (TNF-α): blocked the induction of TNF-α

CC[C@H](C)C(=O)O[C@H]1C[C@@H](C)C=C2C=C[C@H](C)[C@H](CC[C@@H]3C[C@@H](O)CC(=O)O3)[C@H]21 [Lovastatin]
C24:0/C22:0 [3]: 1.25 ± 0.15 and 1.28 ± 0.21 and 1.31 ± 0.18 and 1.26 ± 0.16 and 1.29 ± 0.02
Production of IL-1β [4]: 2.1 ± 0.3 ng/24 h/mg protein
stimulation of lignoceric acid β-oxidation ([5]; 72 h, lovastatin 5 μM, NaPA 5 mM (highest doses found to stimulate)): 70%
Lignoceric acid β-oxidation ([5]; ALDS2, 5 mM NaPA or the combination of 2 μM lovastatin and 2 mM NaPA, Control 142.7 ± 15.7): 223.5 ± 24.1 pmol/h/mg protein
Lignoceric acid β-oxidation ([5]; ALDS2, 5 mM NaPA or the combination of 4 μM forskolin and 2 mM NaPA, Control 142.7 ± 15.7): 223.5 ± 24.1 pmol/h/mg protein
Lignoceric acid β-oxidation ([5]; ALDS3, 5 mM NaPA or the combination of 2 μM lovastatin and 2 mM NaPA, Control 122.3 ± 11.7): 201.3 ± 22.3 pmol/h/mg protein
Lignoceric acid β-oxidation ([5]; ALDS3, 5 mM NaPA or the combination of 4 μM forskolin and 2 mM NaPA, Control 122.3 ± 11.7): 201.3 ± 22.3 pmol/h/mg protein
Lignoceric acid β-oxidation ([5]; ALDS4, 5 mM NaPA or the combination of 2 μM lovastatin and 2 mM NaPA, Control 118.5 ± 12.6): 192.8 ± 20.5 pmol/h/mg protein
Lignoceric acid β-oxidation ([5]; ALDS4, 5 mM NaPA or the combination of 4 μM forskolin and 2 mM NaPA, Control 118.5 ± 12.6): 192.8 ± 20.5 pmol/h/mg protein
Lignoceric acid β-oxidation ([5]; ALDS5, 5 mM NaPA or the combination of 2 μM lovastatin and 2 mM NaPA, Control 154.2 ± 14.2): 248.2 ± 26.2 pmol/h/mg protein
Lignoceric acid β-oxidation ([5]; ALDS5, 5 mM NaPA or the combination of 4 μM forskolin and 2 mM NaPA, Control 154.2 ± 14.2): 248.2 ± 26.2 pmol/h/mg protein
Lignoceric acid β-oxidation ([5]; ALDS6, 5 mM NaPA or the combination of 2 μM lovastatin and 2 mM NaPA, Control 132.4 ± 15.9): 218.3 ± 19.8 pmol/h/mg protein
Lignoceric acid β-oxidation ([5]; ALDS6, 5 mM NaPA or the combination of 4 μM forskolin and 2 mM NaPA, Control 132.4 ± 15.9): 218.3 ± 19.8 pmol/h/mg protein
LPS- and cytokine-induced NO production [1]: inhibit LPS- and cytokine-induced NO production in rat C6 glial cells
Production of TNF-α [6]: 0.9 ± 0.1 ng/24 h/mg protein
Production of IL-1β [7]: 2.3 ± 0.3 ng/24 h/mg protein
plasma levels of very-long-chain fatty acids (C26:0), words ([8]; five patients who continued the treatment): remained low and within the normal range for up to six months
Plasma Very-Long-Chain Fatty Acids AT 1 MO ([8]; individual X-ALD patients (one line each), lovastatin 20 mg per day two weeks, then 40 mg per day, normal controls 0.24 ± 0.13): 0.42 micrograms per milliliter and 0.37 micrograms per milliliter and 0.5 micrograms per milliliter and 0.43 micrograms per milliliter and 0.24 micrograms per milliliter and 0.3 micrograms per milliliter and 0.44 micrograms per milliliter
Plasma Very-Long-Chain Fatty Acids AT 2 MO [8, 12]: 0.41 micrograms per milliliter (2×) and 0.5 micrograms per milliliter and 0.42 micrograms per milliliter (2×) and 0.21 micrograms per milliliter and 0.34 micrograms per milliliter
Plasma Very-Long-Chain Fatty Acids AT 3 MO [8, 12]: 0.56 micrograms per milliliter and 0.3 micrograms per milliliter and 0.43 micrograms per milliliter and 0.21 micrograms per milliliter and 0.32 micrograms per milliliter and 0.36 micrograms per milliliter
Plasma Very-Long-Chain Fatty Acids AT 4 MO [8, 12]: 0.35 micrograms per milliliter and 0.34 micrograms per milliliter (2×) and 0.42 micrograms per milliliter and 0.22 micrograms per milliliter and 0.37 micrograms per milliliter
Plasma Very-Long-Chain Fatty Acids AT 5 MO [8, 12]: 0.17 micrograms per milliliter and 0.41 micrograms per milliliter (2×) and 0.26 micrograms per milliliter and 0.21 micrograms per milliliter
Plasma Very-Long-Chain Fatty Acids AT 6 MO [8, 12]: 0.17 micrograms per milliliter (3×) and 0.16 micrograms per milliliter and 0.21 micrograms per milliliter
Production of TNF-α [9]: 1.2 ± 0.1 ng/24 h/mg protein
Production of NO [10]: 5.9 ± 0.4 nmol/24 h/mg protein
Production of TNF-α [11]: 0.3 ± 0.05 ng/24 h/mg protein
LPS-induced nuclear transcription of the iNOS gene (iNOS gene): inhibited the relative rate of LPS-induced nuclear transcription of the iNOS gene
